Reference: patent US6737383B1, “Herbicidal oxadiazolidines” (priority 1999, dated 2004)

What was measured:
sugar beet = assay: Test B pre/postemergence sugar beet; assay type: in vivo, Beta vulgaris
Procedure, shortened: (§1)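 Herbicidal effect was estimated by eye on a ten-point control scale after plants spent twelve to sixteen days in a greenhouse following soil or foliar treatment. Foliar sprays targeted plants at one to four leaves; all doses were formulated in a non-phytotoxic solvent with surfactant.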

wheat = assay: Test B pre/postemergence wheat; assay type: in vivo, Triticum aestivum
Procedure, shortened: as §1

surinam grass = assay: Test B pre/postemergence surinam grass; assay type: in vivo, Brachiaria decumbens
Procedure, shortened: as §1

cocklebur = assay: Test B pre/postemergence cocklebur; assay type: in vivo, Xanthium strumarium
Procedure, shortened: as §1

soybean = assay: Test B pre/postemergence soybean; assay type: in vivo, Glycine max
Procedure, shortened: as §1

morningglory = assay: Test B pre/postemergence morningglory; assay type: in vivo, Ipomoea hederacea
Procedure, shortened: as §1

purple nutsedge = assay: Test B pre/postemergence purple nutsedge; assay type: in vivo, Cyperus rotundus
Procedure, shortened: as §1

giant foxtail = assay: Test B pre/postemergence giant foxtail; assay type: in vivo, Setaria faberii
Procedure, shortened: as §1

wild oat = assay: Test B pre/postemergence wild oat; assay type: in vivo, Avena fatua
Procedure, shortened: as §1

blackgrass = assay: Test B pre/postemergence blackgrass; assay type: in vivo, Alopecurus myosuroides
Procedure, shortened: as §1

bedstraw = assay: Test B pre/postemergence bedstraw; assay type: in vivo, Galium aparine
Procedure, shortened: as §1

corn = assay: Test B pre/postemergence corn; assay type: in vivo, Zea mays
Procedure, shortened: as §1

crabgrass = assay: Test B pre/postemergence crabgrass; assay type: in vivo, Digitaria sanguinalis
Procedure, shortened: as §1

pigweed = assay: Test B pre/postemergence pigweed; assay type: in vivo, Amaranthus retroflexus
Procedure, shortened: as §1

velvetleaf = assay: Test B pre/postemergence velvetleaf; assay type: in vivo, Abutilon theophrasti
Procedure, shortened: as §1

rape = assay: Test B pre/postemergence rape; assay type: in vivo, Brassica napus
Procedure, shortened: as §1

[1] = Postemergence, Rate 62 g/ha, scale 0 to 10, 0 is no effect, 10 is complete control
[2] = Postemergence, Rate 500 g/ha, scale 0 (no effect) to 10 (complete control)
[3] = Rate 62 g/ha, Preemergence, scale 0 to 10
[4] = Rate 125 g/ha, Preemergence, scale 0 to 10 (0 no effect, 10 complete control)
[5] = Rate 250 g/ha, Postemergence, scale 0 to 10, 0 is no effect, 10 is complete control
[6] = Rate 500 g/ha, Preemergence, scale 0 to 10 (0 no effect, 10 complete control)
[7] = Postemergence, Rate 125 g/ha, scale of 0 to 10 where 0 is no effect and 10 is complete control
[8] = Preemergence, Rate 250 g/ha, scale 0 (no effect) to 10 (complete control)

CCOC(CC)n1c(=O)on(C(=O)N(c2ccccc2)C(C)C)c1=O (stereo not drawn) [Compound 773]
0: Plant response rating, Sugarbeets (sugar beet; [1]) | Sugarbeets plant response rating (sugar beet; [2]) | Sugarbeets plant response rating (sugar beet; [3]) | Sugarbeets plant response rating (sugar beet; [4]) | Sugarbeets plant response rating (sugar beet; [5]) | Sugarbeets plant response rating (sugar beet; [6]) | Plant response rating, Wheat (wheat; [1]) | Wheat plant response rating (wheat; [2]) | Wheat plant response rating (wheat; [3]) | Wheat plant response rating (wheat; [4]) | Wheat plant response rating (wheat; [5]) | Wheat plant response rating (wheat; [6]) | Plant response rating, B. signalgrass (surinam grass; [1]) | B. signalgrass plant response rating (surinam grass; [7]) | B. signalgrass plant response rating (surinam grass; [8]) | B. signalgrass plant response rating (surinam grass; Rate 62 g/ha, Preemergence, scale 0 (no effect) to 10 (complete control)) | B. signalgrass plant response rating (surinam grass; [4]) | B. signalgrass plant response rating (surinam grass; [5]) | B. signalgrass plant response rating (surinam grass; Rate 500 g/ha, Postemergence, scale 0 to 10, 0 is no effect, 10 is complete control) | B. signalgrass plant response rating (surinam grass; [6]) | Plant response rating, Cocklebur (cocklebur; [1]) | Cocklebur plant response rating (cocklebur; [7]) | Cocklebur plant response rating (cocklebur; [2]) | Cocklebur plant response rating (cocklebur; [8]) | Cocklebur plant response rating (cocklebur; [3]) | Cocklebur plant response rating (cocklebur; [4]) | Cocklebur plant response rating (cocklebur; [5]) | Cocklebur plant response rating (cocklebur; [6]) | Plant response rating, Soybean (soybean; [1]) | Soybean plant response rating (soybean; [2]) | Soybean plant response rating (soybean; [3]) | Soybean plant response rating (soybean; [4]) | Soybean plant response rating (soybean; [5]) | Soybean plant response rating (soybean; [6]) | Plant response rating, Morningglory (morningglory; [1]) | Morningglory plant response rating (morningglory; [7]) | Morningglory plant response rating (morningglory; [2]) | Morningglory plant response rating (morningglory; [3]) | Morningglory plant response rating (morningglory; [4]) | Morningglory plant response rating (morningglory; [5]) | Morningglory plant response rating (morningglory; [6]) | Plant response rating, Nutsedge (purple nutsedge; [1]) | Nutsedge plant response rating (purple nutsedge; [7]) | Nutsedge plant response rating (purple nutsedge; [2]) | Nutsedge plant response rating (purple nutsedge; [3]) | Nutsedge plant response rating (purple nutsedge; [4]) | Nutsedge plant response rating (purple nutsedge; [5]) | Nutsedge plant response rating (purple nutsedge; [6]) | Plant response rating, Giant foxtail (giant foxtail; [1]) | Giant foxtail plant response rating (giant foxtail; [7]) | Giant foxtail plant response rating (giant foxtail; [2]) | Giant foxtail plant response rating (giant foxtail; [8]) | Giant foxtail plant response rating (giant foxtail; [3]) | Giant foxtail plant response rating (giant foxtail; [4]) | Giant foxtail plant response rating (giant foxtail; [5]) | Giant foxtail plant response rating (giant foxtail; [6]) | Plant response rating, Wild oats (wild oat; [1]) | Wild oats plant response rating (wild oat; [2]) | Wild oats plant response rating (wild oat; [3]) | Wild oats plant response rating (wild oat; [4]) | Wild oats plant response rating (wild oat; [5]) | Wild oats plant response rating (wild oat; [6]) | Plant response rating, Blackgrass (blackgrass; [1]) | Blackgrass plant response rating (blackgrass; [7]) | Blackgrass plant response rating (blackgrass; [2]) | Blackgrass plant response rating (blackgrass; [8]) | Blackgrass plant response rating (blackgrass; [3]) | Blackgrass plant response rating (blackgrass; [4]) | Blackgrass plant response rating (blackgrass; [5]) | Blackgrass plant response rating (blackgrass; [6]) | Plant response rating, Bedstraw (bedstraw; [1]) | Bedstraw plant response rating (bedstraw; [7]) | Bedstraw plant response rating (bedstraw; [2]) | Bedstraw plant response rating (bedstraw; [8]) | Bedstraw plant response rating (bedstraw; [3]) | Bedstraw plant response rating (bedstraw; [4]) | Bedstraw plant response rating (bedstraw; [5]) | Bedstraw plant response rating (bedstraw; [6]) | Plant response rating, Corn (corn; [1]) | Corn plant response rating (corn; [7]) | Corn plant response rating (corn; [2]) | Corn plant response rating (corn; [8]) | Corn plant response rating (corn; [3]) | Corn plant response rating (corn; [4]) | Corn plant response rating (corn; [5]) | Corn plant response rating (corn; [6]) | Plant response rating, Crabgrass (crabgrass; [1]) | Crabgrass plant response rating (crabgrass; [7]) | Crabgrass plant response rating (crabgrass; [2]) | Crabgrass plant response rating (crabgrass; [8]) | Crabgrass plant response rating (crabgrass; [3]) | Crabgrass plant response rating (crabgrass; [4]) | Crabgrass plant response rating (crabgrass; [5]) | Crabgrass plant response rating (crabgrass; [6]) | Plant response rating, Redroot pigweed (pigweed; [1]) | Redroot pigweed plant response rating (pigweed; [7]) | Redroot pigweed plant response rating (pigweed; [2]) | Redroot pigweed plant response rating (pigweed; [3]) | Redroot pigweed plant response rating (pigweed; [4]) | Redroot pigweed plant response rating (pigweed; [5]) | Redroot pigweed plant response rating (pigweed; [6]) | Plant response rating, Velvetleaf (velvetleaf; [1]) | Velvetleaf plant response rating (velvetleaf; [2]) | Velvetleaf plant response rating (velvetleaf; [3]) | Velvetleaf plant response rating (velvetleaf; [4]) | Velvetleaf plant response rating (velvetleaf; [5]) | Velvetleaf plant response rating (velvetleaf; [6]) | Plant response rating, Rape (rape; [1]) | Rape plant response rating (rape; [7]) | Rape plant response rating (rape; [2]) | Rape plant response rating (rape; [3]) | Rape plant response rating (rape; [4]) | Rape plant response rating (rape; [5]) | Rape plant response rating (rape; [6])
